The assay concerns the target ADRB2 (Homo sapiens, UniProt P07550). As to conditions: 100 μM compound, 5 nM barcoded β-arr2, GRK2.

Chain of ADRB2 (P07550 whole entry): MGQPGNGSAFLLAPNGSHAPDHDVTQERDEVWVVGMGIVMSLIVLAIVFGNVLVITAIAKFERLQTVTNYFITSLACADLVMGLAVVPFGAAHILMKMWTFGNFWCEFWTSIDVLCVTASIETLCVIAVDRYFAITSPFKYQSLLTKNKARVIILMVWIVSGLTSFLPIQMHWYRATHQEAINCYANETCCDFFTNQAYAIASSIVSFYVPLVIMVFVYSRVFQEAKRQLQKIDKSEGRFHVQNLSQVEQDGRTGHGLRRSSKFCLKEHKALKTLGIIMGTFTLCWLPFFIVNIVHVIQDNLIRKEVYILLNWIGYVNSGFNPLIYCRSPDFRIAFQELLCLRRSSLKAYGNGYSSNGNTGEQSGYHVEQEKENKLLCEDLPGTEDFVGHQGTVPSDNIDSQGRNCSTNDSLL
Description: A compound library could be screened in multi-well plates, and in each well, one compound was assayed with many barcoded GPCRs and a β-arrestin-2 (β-arr2) protein bearing a well-position-associated barcode (FIG. 3C). All the samples were pooled and deposited on one slide, and the interaction of a GPCR with a compound was detected by the increased GPCR polony co-localization with the corresponding β-arr2 polonies. […] The co-localization ratios were measured at 50 imaging positions on the array for statistical analysis.
A GPCR-β-arr2 binding assay was performed by mixing a ligand with ˜1 nM GPCR-nanodisc complexes in an assay buffer A2 (20 mM HEPES, pH 7.5, 50 mM KOAc, 2 mM EDTA and 5 mM MgCl2), followed by addition of 10 nM GRK2 (Life Technologies), 0.1 mM ATP, 10 nM G protein β1γ2 subunits (KeraFAST) and 5 nM barcoded β-arr2 in a total volume of 25 μL. Compounds were assayed in parallel using a multi-well plate, and the reactions were incubated at 30° C. for 30 min. Similarly as described above, GPCR-β-arr2 complexes were crosslinked and both crosslinked and free GPCRs were purified from the reactions with the anti-HA magnetic beads. Proteins were pooled and analyzed on a single array.

For `CC(C)NCC(O)COc1cccc2[nH]ccc12` (stereo not shown) [pindolol], the “agonist type identified by polony co-localization ratios” value is on record as “partial”.

The values above are taken from patent US12305226B2, “Barcoded protein array for multiplex single-molecule interaction profiling” (President and Fellows of Harvard College, priority 2014, dated 2025).
